Key:
[1] = system: methicillin resistant Staphylococcus aureus; settings: methicillin-resistant S. aureus (MR); s.c. in the hour subsequent to inoculation; previous studies; cited from earlier work
[2] = system: methicillin-resistant S. aureus; settings: S. aureus (MR); s.c. in the hour subsequent to inoculation; cited from earlier work
[3] = system: methicillin resistant Staphylococcus aureus; assay: Survival of mice inoculated with 10xLD50 S. aureus, EK pretreatment with or without Ampicillin; assay type: in vivo
Description: Animals were inoculated intraperitoneally with 10×LD50 of a Staphylococcus aureus suspended in brain-heart infusion broth containing 5 percent mucin. […] If significant prevention of mortality (>50 percent survival) was observed, the minimum effective dose (MED) was determined.
Two control experiments were initially conducted. […] No antibiotic was administered to this group. The number of survivors at 72 hours was determined. […] The number of survivors at 72 hours was recorded.
Survival statistics were determined over the periods of 12, 24, 36, 48, and 72 hours. […] Survival statistics were determined over the periods 12, 23,36, 48, and 72 hours. FIG. 1 illustrates the experimental protocol.

microbial growth = assay: Bacterial culture experiments with EK; assay type: cell-based; settings: concentrations exceeding 1000 times the administered dose to animals
[4] = 12 HOURS after inoculation, EK 10 mcg/kg
[5] = 12 HOURS after inoculation, EK 100 mcg/kg
[6] = 12 HOURS after inoculation, EK 1000 mcg/kg
[7] = 24 HOURS after inoculation, EK 10 mcg/kg
[8] = 24 HOURS after inoculation, EK 100 mcg/kg
[9] = 24 HOURS after inoculation, EK 1000 mcg/kg
[10] = 36 HOURS after inoculation, EK 10 mcg/kg
[11] = 36 HOURS after inoculation, EK 100 mcg/kg
[12] = 36 HOURS after inoculation, EK 1000 mcg/kg
[13] = 48 HOURS after inoculation, EK 10 mcg/kg
[14] = 48 HOURS after inoculation, EK 100 mcg/kg
[15] = 48 HOURS after inoculation, EK 1000 mcg/kg
[16] = 72 HOURS after inoculation, EK 10 mcg/kg
[17] = 72 HOURS after inoculation, EK 100 mcg/kg
[18] = 72 HOURS after inoculation, EK 1000 mcg/kg

CC1(C)S[C@@H]2[C@H](NC(=O)[C@H](N)c3ccccc3)C(=O)N2[C@H]1C(=O)O [Amp, Ampicillin]
MED (minimum effective dose) [1]: greater than 100 mg/kg | MED (minimum effective dose) [2]: greater than 100 mg/kg

Glu-Lys [EK]
Deaths [3, 4]: 0 | Survival [3, 4]: 100.00% | Survivors [3, 4]: 18 | Deaths [3, 5]: 2 | Survival [3, 5]: 88.89% | Survivors [3, 5]: 16 | Deaths [3, 6]: 1 | Survival [3, 6]: 94.44% | Survivors [3, 6]: 17 | Deaths [3, 7]: 5 | Survival [3, 7]: 72.22% | Survivors [3, 7]: 13 | Deaths [3, 8]: 5 | Survival [3, 8]: 72.22% | Survivors [3, 8]: 13 | Deaths [3, 9]: 1 | Survival [3, 9]: 94.44% | Survivors [3, 9]: 17 | Deaths [3, 10]: 9 | Survival [3, 10]: 50.00% | Survivors [3, 10]: 9 | Deaths [3, 11]: 9 | Survival [3, 11]: 50.00% | Survivors [3, 11]: 9 | Deaths [3, 12]: 4 | Survival [3, 12]: 77.78% | Survivors [3, 12]: 14 | Deaths [3, 13]: 13 | Survivors [3, 13]: 5 | Deaths [3, 14]: 13 | Survivors [3, 14]: 5 | Deaths [3, 15]: 10 | Survival [3, 15]: 44.44% | Survivors [3, 15]: 8 | Deaths [3, 16]: 13 | Survivors [3, 16]: 5 | Deaths [3, 17]: 13 | Survivors [3, 17]: 5 | Deaths [3, 18]: 11 | Survival [3, 18]: 38.89% | Survivors [3, 18]: 7 | survival after normally lethal i.p. dose of S. aureus ([3]; EK pretreatment): dramatic improvement in survival | Survival ([3]; at 36 hours, across EK dose groups): ≤ 78% | Survival ([3]; by 72 hours, across EK dose groups): at least 27% | activity on microbial growth (microbial growth): no inhibitory nor suppressive activity

Reference: patent US6346514B1, “Pharmaceutical lysine-containing polypeptide compositions and methods of use thereof” (priority 1991, dated 2002)
